Experimental data reported in US20240189285A1, “COMPOSITION AND METHOD FOR ENHANCING MITOCHONDRIAL BIOGENESIS AND ACTIVATING PGC-1A” (NANJING NUTRABUILDING BIO-TECH CO., LTD., priority 2021, published 2024).

Legend:
Type in all cases: cell-based
PGC-1α = PGC-1α protein expression by Western blot in target cells
Protocol: (§1) Target cells (endothelial cells, C2C12 skeletal muscle cells, etc.) are obtained according to conventional methods in the art.
(§2) The target cells (endothelial cells, C2C12 skeletal muscle cells, etc.) are divided into groups A, B, C and D. B and D group cells were cultured with 50 μM L-Ergothioneine for 12 hours, and A and C groups were not cultured with Ergothioneine but only with the usual nutrient solution for 12 hours. Then a certain concentration of H2O2 was used to cause C and D group cells damage, no H2O2 was used on A and B groups. Then PGC-1α protein expression and Sirt1 protein level were analyzed by Western blot.

[1] = test system: target cells (endothelial cells, C2C12 skeletal muscle cells, etc.); test: Mitochondrial biogenesis in vitro: mitochondrial mass (flow cytometry, fluorescent microscopy) and mtDNA copy number (quantitative PCR)
Protocol: as §1
as §2, with “were” for “are”, “hours.” for “hours, and”, “Mitochondrial biogenesis was measured by quantifying both mitochondrial mass” for “Then PGC-1α protein expression”, “mitochondrial DNA (mtDNA) contents. Mitochondrial mass was measured by flow cytometry and fluorescent microscopy, mtDNA copy number was” for “Sirt1 protein level were”, “quantitative PCR.” for “Western blot.”

Sirt1 = Sirt1 protein level by Western blot in target cells
Protocol: as §1, §2

[2] = group B: 50 μM L-Ergothioneine for 12 hours, no H2O2, untreated group A = 100

C[N+](C)(C)[C@@H](Cc1c[nH]c(=S)[nH]1)C(=O)[O-] [L-Ergothioneine]
PGC-1α level (Western blot) (PGC-1α; group B: 50 μM L-Ergothioneine for 12 hours, no H2O2, untreated group A about 0.0046): ~0.005 | PGC-1α level (Western blot) (PGC-1α; group D: 50 μM L-Ergothioneine for 12 hours, then H2O2 damage, H2O2-only group C about 0.0036): ~0.0043 | Relative mitochondrial mass [1, 2]: 112% | Relative mtDNA content [1, 2]: 118% | Relative mitochondrial mass ([1]; group D: 50 μM L-Ergothioneine for 12 hours, then H2O2 damage, H2O2-only group C = 78): 90% | Relative mtDNA content ([1]; group D: 50 μM L-Ergothioneine for 12 hours, then H2O2 damage, H2O2-only group C = 89): 93% | Sirt1 level (Western blot) (Sirt1; group B: 50 μM L-Ergothioneine for 12 hours, no H2O2, untreated group A about 0.79): ~0.85 | Sirt1 level (Western blot) (Sirt1; group D: 50 μM L-Ergothioneine for 12 hours, then H2O2 damage, H2O2-only group C about 0.65): ~0.75
